In paper PMC11435058, “Synthesis of New Thiazole-Privileged Chalcones as Tubulin Polymerization Inhibitors with Potential Anticancer Activities” (Pharmaceuticals, 2024):

Key:
NCI-H23 = test: NCI-60 anticancer screen (SRB; single dose and five doses); settings: Homo sapiens; for activity at 10 µM: NCI-H23, 48 h, read-out: Growth Percentage
RXF 393 = test: as above; settings: Homo sapiens; for activity at 10 µM: RXF 393, 48 h, read-out: Growth Percentage
SK-MEL-2 = test: as above; settings: Homo sapiens; for activity at 10 µM: SK-MEL-2, 48 h, read-out: Growth Percentage
IGROV1 = test: as above; settings: Homo sapiens; for activity at 10 µM: IGROV-1, 48 h, read-out: Growth Percentage
CCRF-CEM = test: NCI-60 anticancer screen (SRB; single dose 10 μM and five doses); settings: Homo sapiens; for activity at 10 µM: 48 h, read-out: Growth Percentage
OVCAR-8 = test: NCI-60 anticancer screen (SRB; single dose and five doses); settings: Homo sapiens; for activity at 10 µM: OVCAR-8, 48 h, read-out: Growth Percentage
COLO 205 = test: as above; settings: Homo sapiens; for activity at 10 µM: COLO 205, 48 h, read-out: Growth Percentage

Molecule `Cc1[nH]c(=S)sc1C(=O)/C=C/c1ccc([N+](=O)[O-])cc1` [2i, (E)-1-(4-Methyl-2-Thioxo-2,3-Dihydrothiazol-5-yl)-3-(4-Nitrophenyl)Prop-2-En-1-One] has a GI50 (NCI-H23; NCI-H23) of 12.2 µM, an activity at 10 µM (NCI-H23) of 49.2% and a CC50 (NCI-H23; NCI-H23, read-out: LC50) of 52.6 µM. For the same molecule, the IC (TGI) (NCI-H23; NCI-H23, read-out: TGI) was 25.3 µM, the GI50 (RXF 393; RXF 393) was 4.88 µM and the activity at 10 µM (RXF 393) was -4.35%. For the same molecule, the CC50 (RXF 393; RXF 393, read-out: LC50) was 44.8 µM, the IC (TGI) (RXF 393; RXF 393, read-out: TGI) was 18.6 µM and the GI50 (SK-MEL-2; SK-MEL-2) was 13.6 µM. For the same molecule, the activity at 10 µM (SK-MEL-2) was 49.5%, the CC50 (SK-MEL-2; SK-MEL-2, read-out: LC50) was 62 µM and the IC (TGI) (SK-MEL-2; SK-MEL-2, read-out: TGI) was 29 µM. It also gave a GI50 (IGROV1; IGROV-1) of 4.43 µM, an activity at 10 µM (IGROV1) of 16.1% and a CC50 (IGROV1; IGROV-1, read-out: LC50) of 50.8 µM. The IC (TGI) (IGROV1; IGROV-1, read-out: TGI) was 14.9 µM, the GI50 (CCRF-CEM) was 4.56 µM and the activity at 10 µM (CCRF-CEM) was -7.25%. For the same molecule, the IC (TGI) (CCRF-CEM; read-out: TGI) was over 100 µM, the GI50 (OVCAR-8; OVCAR-8) was 7.73 µM and the activity at 10 µM (OVCAR-8) was 7.06%. For the same molecule, the CC50 (OVCAR-8; OVCAR-8, read-out: LC50) was 65.2 µM, the IC (TGI) (OVCAR-8; OVCAR-8, read-out: TGI) was 23.9 µM and the GI50 (COLO 205; COLO 205) was 15.9 µM. The activity at 10 µM (COLO 205) was 91.5%, the CC50 (COLO 205; COLO 205, read-out: LC50) was over 100 µM and the IC (TGI) (COLO 205; COLO 205, read-out: TGI) was 41.1 µM.

`Cc1ccc(/C=C/C(=O)c2sc(=S)[nH]c2C)cc1` [2j, (E)-1-(4-Methyl-2-Thioxo-2,3-Dihydrothiazol-5-yl)-3-(p-Tolyl)Prop-2-En-1-One] showed an activity at 10 µM (NCI-H23) of 68.5%, an activity at 10 µM (RXF 393) of 55.4% and an activity at 10 µM (SK-MEL-2) of 89.8%. For the same molecule, the activity at 10 µM (IGROV1) was 83.4%, the activity at 10 µM (CCRF-CEM) was 24.6% and the activity at 10 µM (OVCAR-8) was 17.3%. For the same molecule, the activity at 10 µM (COLO 205) was 122% and the melting point was 241 to 243 °C.

Work on `Cc1[nH]c(=S)sc1C(=O)/C=C/c1ccc(N(C)C)cc1` [2k, (E)-3-(4-(Dimethylamino)Phenyl)-1-(4-Methyl-2-Thioxo-2,3-Dihydrothiazol-5-yl)Prop-2-En-1-One] yielded an activity at 10 µM (NCI-H23) of 71.1%, an activity at 10 µM (RXF 393) of 90.8% and an activity at 10 µM (SK-MEL-2) of 88.9%. For the same molecule, the activity at 10 µM (IGROV1) was 82.3%, the activity at 10 µM (CCRF-CEM) was 68.5% and the activity at 10 µM (OVCAR-8) was 83.4%. It also gave an activity at 10 µM (COLO 205) of 115% and a melting point of 249 to 251 °C.

In the case of `COc1ccc(/C=C/C(=O)c2sc(=S)[nH]c2C)cc1` [2l, (E)-3-(4-Methoxyphenyl)-1-(4-Methyl-2-Thioxo-2,3-Dihydrothiazol-5-yl)Prop-2-En-1-One], the activity at 10 µM (NCI-H23) was 81.8%, the activity at 10 µM (RXF 393) was 77.5% and the activity at 10 µM (SK-MEL-2) was 80.3%. The activity at 10 µM (IGROV1) was 89.1%, the activity at 10 µM (CCRF-CEM) was 59% and the activity at 10 µM (OVCAR-8) was 76.9%. It also gave a melting point of 246 to 248 °C.

`COc1cccc(/C=C/C(=O)c2sc(=S)[nH]c2C)c1OC` [2m, (E)-3-(2,3-Dimethoxyphenyl)-1-(4-Methyl-2-Thioxo-2,3-Dihydrothiazol-5-yl)Prop-2-En-1-One] showed an activity at 10 µM (NCI-H23) of 86.5%, an activity at 10 µM (RXF 393) of 52.5% and an activity at 10 µM (SK-MEL-2) of 94.2%. The activity at 10 µM (IGROV1) was 73.9%, the activity at 10 µM (CCRF-CEM) was 12.4% and the activity at 10 µM (OVCAR-8) was 44.6%. The activity at 10 µM (COLO 205) was 103% and the melting point was 239 to 240 °C.

In the case of `COc1ccc(/C=C/C(=O)c2sc(=S)[nH]c2C)c(OC)c1` [2n, (E)-3-(2,4-Dimethoxyphenyl)-1-(4-Methyl-2-Thioxo-2,3-Dihydrothiazol-5-yl)Prop-2-En-1-One], the activity at 10 µM (NCI-H23) was 72.9%, the activity at 10 µM (RXF 393) was 68.9% and the activity at 10 µM (SK-MEL-2) was 64.7%. For the same molecule, the activity at 10 µM (CCRF-CEM) was 53.7%, the activity at 10 µM (OVCAR-8) was 81.5% and the activity at 10 µM (COLO 205) was 123%. The melting point was 255 to 257 °C.

`COc1ccc(/C=C/C(=O)c2sc(=S)[nH]c2C)cc1OC` [2o, (E)-3-(3,4-Dimethoxyphenyl)-1-(4-Methyl-2-Thioxo-2,3-Dihydrothiazol-5-yl)Prop-2-En-1-One] showed an activity at 10 µM (NCI-H23) of 65.1%, an activity at 10 µM (RXF 393) of 48.1% and an activity at 10 µM (SK-MEL-2) of 68.6%. For the same molecule, the activity at 10 µM (IGROV1) was 69.5%, the activity at 10 µM (CCRF-CEM) was 15.5% and the activity at 10 µM (OVCAR-8) was 34.3%. For the same molecule, the activity at 10 µM (COLO 205) was 116% and the melting point was 245 to 247 °C.
